Assay results published in patent US9233965B2, “3,4-dihydropyrrolo[1,2-A]pyrazine-2,8(1H)-dicarboxamide derivatives, preparation thereof and therapeutic use thereof for diseases involving casein kinase 1 epsilon and/or casein kinase 1 delta” (SANOFI, priority 2010, dated 2016).

Columns and labels:
[1] = biological target: casein kinase 1 epsilon (CK1 epsilon) (Homo sapiens (Human), UniProt P49674); test: Test A: inhibitory activity on CK1 epsilon, casein phosphorylation assay on ATP-33P filter plate; type: biochemical; conditions: IC50 values or IC50 ranges (result of several experiments), ATP 10 μM final
Chain of casein kinase 1 epsilon (CK1 epsilon) (P49674 whole entry): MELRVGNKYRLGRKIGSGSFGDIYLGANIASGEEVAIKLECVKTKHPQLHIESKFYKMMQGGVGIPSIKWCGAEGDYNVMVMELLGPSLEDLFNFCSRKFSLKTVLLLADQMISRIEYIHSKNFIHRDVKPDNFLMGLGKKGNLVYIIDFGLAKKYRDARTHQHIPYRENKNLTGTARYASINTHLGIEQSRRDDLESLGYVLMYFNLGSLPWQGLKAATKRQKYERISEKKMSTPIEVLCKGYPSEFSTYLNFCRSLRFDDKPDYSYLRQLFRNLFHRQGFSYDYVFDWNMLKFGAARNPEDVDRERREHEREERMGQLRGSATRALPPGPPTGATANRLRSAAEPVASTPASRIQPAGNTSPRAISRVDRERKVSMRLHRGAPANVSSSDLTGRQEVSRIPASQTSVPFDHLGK
Method in brief: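 Human CK1 epsilon (3 ng/μL final) phosphorylates dephosphorylated casein (0.2 μg/μL) with ATP-33P plus 10 μM cold ATP (KM for ATP 21 μM), 2 h at room temperature, pH 7.5 Tris buffer. TCA-precipitated protein counted by scintillation; compounds at 10 to 0.001 μM give IC50 values or % inhibition at 10 μM.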

IC50 [1] [nM]	melting point [°C]	SMILES
2 to 16	119 to 124	NC(=O)c1c(-c2cccc(F)c2)c(Cl)n2c1CN(C(=O)NCCC(F)(F)F)CC2 [Compound 80, 6-chloro-7-(3-fluorophenyl)-N^2-(3,3,3-trifluoropropyl)-3,4-dihydropyrrolo[1,2-a]pyrazine-2,8(1H)-dicarboxamide]
2	176 to 178	C[C@H](NC(=O)N1CCn2c(C#N)c(-c3cccc(F)c3)c(C(N)=O)c2C1)C(F)(F)F [Compound 106, 6-cyano-7-(3-fluorophenyl)-N^2-((2S)-1,1,1-trifluoropropan-2-yl)-3,4-dihydropyrrolo[1,2-a]pyrazine-2,8(1H)-dicarboxamide]
1 to 2	192 to 195	CC(C)(C)NC(=O)N1CCn2c(Cl)c(-c3cccc(C#N)c3)c(C(N)=O)c2C1 [Compound 65, N^2-tert-butyl-6-chloro-7-(3-cyanophenyl)-3,4-dihydropyrrolo[1,2-a]pyrazine-2,8(1H)-dicarboxamide]
6 to 7	184 to 186	NC(=O)c1c(-c2cccc(F)c2)c(Cl)n2c1CN(C(=O)NC1COC1)CC2 [Compound 90, 6-chloro-7-(3-fluorophenyl)-N^2-(oxetan-3-yl)-3,4-dihydropyrrolo[1,2-a]pyrazine-2,8(1H)-dicarboxamide]
< 1	202 to 204	CC(C)(NC(=O)N1CCn2c(C#N)c(-c3cccc(F)c3)c(C(N)=O)c2C1)C(F)(F)F [Compound 107, 6-cyano-7-(3-fluorophenyl)-N^2-(1,1,1-trifluoro-2-methylpropan-2-yl)-3,4-dihydropyrrolo[1,2-a]pyrazine-2,8(1H)-dicarboxamide]
21 to 28	227 to 229	NC(=O)c1c(-c2ccccc2)c(Cl)n2c1CN(C(=O)NC1CCOCC1)CC2 [Compound 93, 6-chloro-7-phenyl-N^2-(tetrahydro-2H-pyran-4-yl)-3,4-dihydropyrrolo[1,2-a]pyrazine-2,8(1H)-dicarboxamide]
1 to 7	208 to 209	NC(=O)c1c(-c2ccccc2)c(Cl)n2c1CN(C(=O)NC1CCCCC1)CC2 [Compound 82, 6-chloro-N^2-cyclo-hexyl-7-phenyl-3,4-dihydropyrrolo[1,2-a]pyrazine-2,8(1H)-dicarboxamide]
6	185 to 187	CC(C)(CO)CNC(=O)N1CCn2c(Cl)c(-c3cccc(C(F)(F)F)c3)c(C(N)=O)c2C1 [Compound 74, 6-chloro-N^2-(3-hydroxy-2,2-dimethylpropyl)-7-(3-trifluoromethyl-phenyl)-3,4-dihydropyrrolo[1,2-a]pyrazine-2,8(1H)-dicarboxamide]
4	249 to 253	CC1(CNC(=O)N2CCn3c(Cl)c(-c4cccc(F)c4)c(C(N)=O)c3C2)COC1 [Compound 91, 6-chloro-7-(3-fluorophenyl)-N^2-(3-methyl-oxetan-3-ylmethyl)-3,4-dihydropyrrolo[1,2-a]pyrazine-2,8(1H)-dicarboxamide]
< 1	197 to 198	COc1ccc(-c2cn3c(c2C(N)=O)CN(C(=O)NC(C)(C)C)CC3)cc1 [Compound 2, N^2-tert-butyl-7-(4-methoxyphenyl)-3,4-dihydropyrrolo[1,2-a]pyrazine-2,8(1H)-dicarboxamide]
11 to 13	181 to 185	NC(=O)c1c(-c2ccccc2)c(Cl)n2c1CN(C(=O)NC1CCOC1)CC2 (stereo not drawn) [Compound 92, 6-chloro-7-phenyl-N^2-(tetrahydrofuran-3-yl)-3,4-dihydropyrrolo[1,2-a]pyrazine-2,8(1H)-dicarboxamide]
2 to 18	231 to 234	Cc1cccc(-c2c(C(N)=O)c3n(c2Cl)CCN(C(=O)NC2CCOCC2)C3)c1 [Compound 94, 6-chloro-7-(3-methylphenyl)-N^2-(tetrahydro-2H-pyran-4-yl)-3,4-dihydropyrrolo[1,2-a]pyrazine-2,8(1H)-dicarboxamide]
315	156 to 158	CC(C)(C)NC(=O)N1CCn2c(c(C(N)=O)c(-c3cccc(OCc4ccccc4)c3)c2C2CC2)C1 [Compound 34, 7-[3-(benzyloxy)phenyl]-N^2-tert-butyl-6-cyclo-propyl-3,4-dihydropyrrolo[1,2-a]pyrazine-2,8(1H)-dicarboxamide]
4	169 to 171	N#Cc1c(-c2cccc(F)c2)c(C(N)=O)c2n1CCN(C(=O)NCCCC(F)(F)F)C2 [Compound 108, 6-cyano-7-(3-fluorophenyl)-N^2-(4,4,4-trifluoro-butyl)-3,4-dihydropyrrolo[1,2-a]pyrazine-2,8(1H)-dicarboxamide]
2 to 8	208 to 213	NC(=O)c1c(-c2cccc(F)c2)c(Cl)n2c1CN(C(=O)NCC(F)(F)F)CC2 [Compound 77, 6-chloro-7-(3-fluorophenyl)-N^2-(2,2,2-trifluoroethyl)-3,4-dihydropyrrolo[1,2-a]pyrazine-2,8(1H)-dicarboxamide]
5 to 28	213 to 215	CC(C)(C)NC(=O)N1CCn2c(F)c(-c3ccccc3)c(C(N)=O)c2C1 [Compound 58, N^2-tert-butyl-6-fluoro-7-phenyl-3,4-dihydropyrrolo[1,2-a]pyrazine-2,8(1H)-dicarboxamide]
1 to 5	196 to 198	CC(C)(C)NC(=O)N1CCn2c(Cl)c(-c3cccc(F)c3)c(C(N)=O)c2C1 [Compound 67, N^2-tert-butyl-6-chloro-7-(3-fluorophenyl)-3,4-dihydropyrrolo[1,2-a]pyrazine-2,8(1H)-dicarboxamide]
7	216 to 219	COc1ccc(-c2c(C(N)=O)c3n(c2C2CC2)CCN(C(=O)NC24CC5CC(CC2C5)C4)C3)cc1 [Compound 53, 6-cyclo-propyl-N^2-(hexahydro-2,5-methanopentalen-3a(1H)-yl)-7-(4-methoxyphenyl)-3,4-dihydropyrrolo[1,2-a]pyrazine-2,8(1H)-dicarboxamide]
46 to 75	177 to 179	COc1ccc(-c2c(C(N)=O)c3n(c2C2CC2)CCN(C(=O)NC(C)(C)C)C3)cc1 [Compound 36, N^2-tert-butyl-6-cyclo-propyl-7-[4-(methoxy)phenyl]-3,4-dihydropyrrolo[1,2-a]pyrazine-2,8(1H)-dicarboxamide]
6	236 to 238	N#Cc1cccc(-c2c(C(N)=O)c3n(c2Cl)CCN(C(=O)NC2CCOCC2)C3)c1 [Compound 95, 6-chloro-7-(3-cyanophenyl)-N^2-(tetrahydro-2H-pyran-4-yl)-3,4-dihydropyrrolo[1,2-a]pyrazine-2,8(1H)-dicarboxamide]
2 to 16	223 to 225	NC(=O)c1c(-c2cccc(F)c2)c(Cl)n2c1CN(C(=O)NC1CCOCC1)CC2 [Compound 98, 6-chloro-7-(3-fluorophenyl)-N^2-(tetrahydro-2H-pyran-4-yl)-3,4-dihydropyrrolo[1,2-a]pyrazine-2,8(1H)-dicarboxamide]
4 to 5	204 to 206	NC(=O)c1c(-c2cccc(F)c2)c(Cl)n2c1CN(C(=O)NCC1(CO)CC1)CC2 [Compound 75, 6-chloro-7-(3-fluorophenyl)-N^2-{[1-(hydroxymethyl)cyclo-propyl]methyl}-3,4-dihydropyrrolo[1,2-a]pyrazine-2,8(1H)-dicarboxamide]
5	154 to 155	CC(C)CCNC(=O)N1CCn2c(Cl)c(-c3ccccc3)c(C(N)=O)c2C1 [Compound 69, 6-chloro-N^2-(3-methylbutyl)-7-phenyl-3,4-dihydropyrrolo[1,2-a]pyrazine-2,8(1H)-dicarboxamide]
3 to 5	224 to 226	COc1ccc(-c2c(C(N)=O)c3n(c2C2CC2)CCN(C(=O)NC24CC5CC(CC(C5)C2)C4)C3)cc1 [Compound 55, N^2-(adamantan-1-yl)-6-cyclo-propyl-7-(4-methoxyphenyl)-3,4-dihydropyrrolo[1,2-a]pyrazine-2,8(1H)-dicarboxamide]
4	141 to 143	CC1(C)CC(NC(=O)N2CCn3c(Cl)c(-c4cccc(F)c4)c(C(N)=O)c3C2)CCO1 (stereo not drawn) [Compound 99, 6-chloro-7-(3-fluorophenyl)-N^2-(2,2-dimethyl-tetrahydro-2H-pyran-4-yl)-3,4-dihydropyrrolo[1,2-a]pyrazine-2,8(1H)-dicarboxamide]
26 to 38	176 to 177	COc1ccc(-c2c(C(N)=O)c3n(c2C2CC2)CCN(C(=O)NC2CCOCC2)C3)cc1 [Compound 56, 6-cyclo-propyl-7-(4-methoxyphenyl)-N^2-(tetrahydro-2H-pyran-4-yl)-3,4-dihydropyrrolo[1,2-a]pyrazine-2,8(1H)-dicarboxamide]
< 1	237 to 240	N#Cc1c(-c2cccc(F)c2)c(C(N)=O)c2n1CCN(C(=O)NC1CCC(F)(F)CC1)C2 [Compound 110, 6-cyano-N^2-(4,4-difluoro-cyclohexyl)-7-(3-fluorophenyl)-3,4-dihydropyrrolo[1,2-a]pyrazine-2,8(1H)-dicarboxamide]
